# Results as given in patent US20250177473A1, “PEPTIDE REGULATORS OF METABOLISM” (Metabico, Inc., priority 2022, published 2025).
# No end group written: not given here.
# Experiments:
# HepG2 cells = assay: HepG2 cell death on incubation with antagonist; assay type: cell-based, human; settings: co-incubation with EPSI 0.05 mg/mL in M67 reporter experiment
# Method: • HepG2 human hepatocyte carcinoma cell line (HB-8065, ATCC, USA). • HepG2 cells were cultured in a complete DMEM medium containing 15% FBS.
# Transfected HepG2 cells were co-incubated with EPSI peptide (0.05 mg/mL) and antagonists of the selected receptors.
# [1] = test system: M67 (Stat1/Stat3) luciferase reporter; assay: M67 (Stat1/Stat3) luciferase reporter in HepG2 cells; assay type: cell-based, human; settings: 16 hours; for Stat3 (M67) reporter activity with three PPAR antagonists: GW 6471 + T0070907 + GSK3787 applied together with EPSI 0.05 mg/mL; for effect of co-applied inhibitor/antagonist on EPSI-induced M67 reporter activation: EPSI 0.05 mg/mL + inhibitor (pravastatin 10 μM; SC144; NF 449)
# Method: Luciferase reporters used in the study: • M67 luciferase reporter.
# The use of Stat1 inhibitor is required to distinguish the effects of Stat1 and Stat3.
# HepG2 cells were electroporated with 10 μg of purified plasmid DNA and 0.1 μg of pRL-CMV Renilla luciferase control reporter vector (Promega, Madison, WI, USA) using the Neon Transfection System (Thermo Fisher Scientific, Waltham, MA, USA) and the following regimens: three 20 ms 1230 V pulses.
# Luciferase activity was measured in Luminometer 20/20n (TurnerBioSystems, Sunnwale, USA) using Dual-Luciferase Reporter Assay System (Promega, Madison, USA) following the manufacturer's protocol.
# DY 268 (Tocris Cat. No. 5656) • PPAR-alpha: GW 6471 (Tocris, Cat. No. 4618) • PPAR-gamma: T0070907 (Selleck Chemicals, Catalog No. S2871) • PPAR-delta: GSK3787 (Selleck Chemicals, Catalog No. S8025) • LEPR.
# HepG2 cells were electroporated with 10 μg of purified plasmid DNA of M67 reporter and 0.1 μg of pRL-CMV Renilla luciferase control reporter vector (Promega, Madison, WI, USA) using the Neon Transfection System (Thermo Fisher Scientific, Waltham, MA, USA) and the following regimens: three 20 ms 1230 V pulses.
# Detection of luciferase signals was performed 16 hours after the compounds' application. Luciferase activity was measured in Luminometer 20/20n (TurnerBioSystems, Sunnwale, USA) using Dual-Luciferase Reporter Assay System (Promega, Madison, USA) following the manufacturer's protocol.
# [2] = test system: primary mouse fibroblasts; assay: Cell confluence of fibroblasts (cytotoxic effect); assay type: cell-based; settings: 2.5 mg/ml (highest dose), 24 hours
# Method: The study was carried out in primary mouse fibroblasts. Isolation of fibroblasts was carried out with techniques described earlier (See Example 1). Fibroblasts were incubated with […] (SEQ ID NO: 1) peptide at different concentrations (0.005 mg/ml; 0.05 mg/ml; 0.5 mg/ml; 2.5 mg/ml) for 24 hours. Each treatment group was represented in two biological replicates.
# IRS2 gene expression = assay: IRS2 and metabolic gene mRNA expression (real-time PCR) in primary mouse fibroblasts; assay type: cell-based; settings: 24 hours
# Method: The study was carried out in primary mouse fibroblasts. Fibroblasts were isolated from skin tissues of twenty C57BL/6 mice in accordance with the standard protocol (Seluanov (2010). Establishing primary adult fibroblast cultures from rodents. JoVE. 44). Fibroblasts were cultured in a complete DMEM/F12 medium containing 15% FBS for two days, after which they were incubated with individual peptides for 24 hours. The dose of each peptide was 0.5 mg/ml. The experiment was carried out in 2 biological replicates.
# The isolation of total RNA from cells was performed using the “ExtractRNA” reagent (Evrogen, Russia) analog of Trizol, according to the manufacturer's protocol. The quality of the isolated total RNA was assessed by measuring the concentration of RNA and the ratio of optical absorption at wavelengths of 260 nm and 280 nm. […]
# Real-time PCR was performed using commercially available kit qPCR mix-HS-SYBR+Low Rox (Evrogen, Russia) and 7500 real-time PCR System (Applied Biosystems). […] We analyzed expression levels of TSC1, TSC2, pS6K1, pAKT, IRS2, SREBP-1, Stat3 genes. […]
# Isolation of mRNA, synthesis of the first strand of cDNA, and RT-PCR were performed with techniques described earlier (See Example 1). Expression levels of IRS2, TNF-α, IL-6, and GSK3p (WNT-pathway) were analyzed. […]
# TNF-α = TNF-α mRNA expression in LPS-induced primary mouse fibroblasts; assay type: cell-based; settings: peptide 100 μM + LPS 0.5 μg/mL, 24 hours
# Method: (§1) The study was carried out in primary mouse fibroblasts. Isolation of fibroblasts was carried out with techniques described earlier (See Example 1). Fibroblasts were cultured for 3 days. The following stressors were applied separately: bacterial lipopolysaccharides (LPS), high glucose in the incubation medium, and serum-free incubation medium.
# (§2) LPS is a major outer surface membrane component that induces an inflammatory response in cells.
# (§3) Isolation of mRNA, synthesis of the first strand of cDNA, and RT-PCR were performed with techniques described earlier (See Example 1). Expression levels of IRS2, TNF-α, IL-6, and GSK3p (WNT-pathway) were analyzed.
# (§4) The study was carried out in primary mouse fibroblasts. Isolation of fibroblasts was carried out with techniques described earlier (See Example 1). Incubation of fibroblasts with 100 μM individual peptides and 0.5 μg/mL LPS was carried out for 24 hours. Each treatment group was represented in two biological replicates.
# (§5) Isolation of mRNA, synthesis of the first strand of cDNA, and RT-PCR were performed with techniques described earlier (See Example 1). Expression levels of RPL27, TNF-α, IL-6, and IRS2 genes were analyzed.
# IL-6 = IL-6 mRNA expression in LPS-induced primary mouse fibroblasts; assay type: cell-based; settings: peptide 100 μM + LPS 0.5 μg/mL, 24 hours
# Method: as §1, §2, §3, §4, §5
compound,measurement,setting,value
COc1cc(OC)cc(N(CCNC(C)C)c2ccc3ncc(-c4cnn(C)c4)nc3c2)c1 [Erdafitinib],HepG2 cell death,HepG2 cells,total cell death
O=C(NCCS(=O)(=O)c1ccc(C(F)(F)F)cn1)c1ccc(Cl)cc1 [GSK3787],Stat3 (M67) reporter activity with three PPAR antagonists,[1],significant induction
CCC(=O)NC[C@H](Cc1ccc(OCCc2nc(-c3ccccc3)oc2C)cc1)N/C(C)=C\C(=O)c1ccc(C(F)(F)F)cc1 [GW 6471],Stat3 (M67) reporter activity with three PPAR antagonists,[1],significant induction
O=C(Nc1cc(C(=O)Nc2ccc(S(=O)(=O)O)cc2S(=O)(=O)O)cc(C(=O)Nc2ccc(S(=O)(=O)O)cc2S(=O)(=O)O)c1)Nc1cc(C(=O)Nc2ccc(S(=O)(=O)O)cc2S(=O)(=O)O)cc(C(=O)Nc2ccc(S(=O)(=O)O)cc2S(=O)(=O)O)c1 [NF 449],effect of co-applied inhibitor/antagonist on EPSI-induced M67 reporter activation,[1],partially inversed
O=C(NNc1nc2cc(F)ccc2n2cccc12)c1cnccn1 [SC144],effect of co-applied inhibitor/antagonist on EPSI-induced M67 reporter activation,[1],partially inversed
O=C(Nc1ccncc1)c1cc([N+](=O)[O-])ccc1Cl [T0070907],Stat3 (M67) reporter activity with three PPAR antagonists,[1],significant induction
DLSKEPSISRE,cytotoxic effect (confluence of the cells),[2],absence of cytotoxic effect
SKEPSIS (Synthetic polymer),IRS2 expression during LPS-induced inflammatory response,IRS2 gene expression; peptide 100 μM + LPS 0.5 μg/mL,induced
same,IRS2 gene expression levels,"IRS2 gene expression; pharmacophore screen, peptides 100 μM",induce IRS2 gene expression levels
same,LPS-evoked levels of TNF-α expression,TNF-α,reducing LPS-evoked levels
same,LPS-evoked levels of IL-6 expression,IL-6,reducing LPS-evoked levels
